According to patent publication US4255435A, “Triazole compounds” (priority 1980, dated 1981):

What was measured:
[1] = test system: larvae of the cabbage white butterfly (Pieris brassicae); assay: Mortality of larvae of the cabbage white butterfly on treated cabbage leaf; type: in vivo; conditions: Table 3; cabbage leaf dipped in test solution, mortality after 24 + 24 hours, two replicates; 2880 min
Method: This example illustrates the activity of compounds of the invention against larvae of the cabbage white butterfly (Pieris brassicae).
(§1) Ten larvae were placed in a tube together with a square inch of cabbage leaf which had been dipped in the test solution and allowed to dry. After twenty-four hours untreated cabbage was added for food and after a further twenty-four hours an assessment was made of the mortality of the larvae.

[2] = test system: nematode Meloidogyne incognita incognita; assay: Root knots of tomato plants in nematode-infested treated soil; type: in vivo; conditions: 100 parts per million per unit volume of soil, 30° C., ten days; untreated controls average more than 20 knots
Method: This example illustrates the activity of compounds of the invention against the nematode Meloidogyne incognita incognita.
Small tomato plants were transferred to containers with infested soil. Sufficient test compound to give a concentration of 100 parts per million per unit volume of soil was poured onto the soil and the containers suspended in warm water at 30° C.
After ten days the plants were knocked out of the containers and the roots washed clean, the number of knots being noted. The latter was an indication of activity and a low score indicated high activity.

[3] = test system: eggs of the cabbage root fly (Erioischia brassicae); assay: Egg hatch of cabbage root fly eggs in test solution; type: in vivo; conditions: Table 4; eggs stored six days, egg hatch counted, two replicates; 8640 min
Excerpt: This example illustrates the activity of compounds of the invention against the eggs of the cabbage root fly (Erioischia brassicae).
The eggs were then stored for six days and the egg hatch then counted.

[4] = test system: larvae of the diamond back moth (Plutella maculipennis); assay: Mortality of larvae of the diamond back moth on treated cabbage leaf; type: in vivo; conditions: Table 1; cabbage leaf dipped in test solution, mortality after 24 + 24 hours, two replicates; 2880 min
Method: as §1
Two replicates were carried out for each test compound and test solutions of varying concentrations employed so that an LD50 value could be calculated.

aphid Megoura viciae = assay: Aphids on sprayed broad bean plants; type: in vivo; conditions: Table 6; sprayed infested broad bean plants, 24 hours
Method: Broad bean plants 3 to 5 cm. high were infested with aphids and then sprayed with an aqueous dispersion containing varying concentrations of test compound. Each plant was kept under a lamp glass for 24 hours and then examined. In this way an LD50 value for the compounds was calculated.

[5] = acute
Mammalian toxicity = type: in vivo; conditions: in words
insects = assay: Insecticidal activity; type: in vivo; conditions: in words
[6] = acute; remark: listed apart in the source
[7] = test system: larvae of the codling moth (Cydia pomonella); assay: Codling moth larvae on sprayed apple (number of strikes); type: in vivo; conditions: Table 5, after five days, two replicates, 7200 min
Excerpt: This example illustrates the activity of compounds of the invention against the larvae of the codling moth (Cydia pomonella).
An apple sprayed with test solution was allowed to dry and a perspex ring of 1 inch diameter was attached to the apple. Ten larvae were then placed on the apple surface and contained within the ring by means of a muslin covering. After five days an assessment of mortality was made by counting the number of strikes (i.e. the number of entry holes) made by the larvae.

| Compound | ACTIVITY LD50 [1] [p.p.m.] | number of knots on roots [2] [knots] | ACTIVITY LD50 [3] [p.p.m.] | ACTIVITY LD50 [4] [p.p.m.] | ACTIVITY LD50 (aphid Megoura viciae) [p.p.m.] | Oral toxicity (mouse) LD50 [5] [mg/kg] | mammalian toxicity (Mammalian toxicity) | mammalian toxicity when presented as a powder formulation (Mammalian toxicity; (wettable) powder formulation, listed as first compound) | mammalian toxicity when presented as a powder formulation (Mammalian toxicity; wettable powder formulation) | insecticidal activity (insects) | Oral toxicity (rat) LD50 [6] [mg/kg] | Dermal toxicity (rat) LD50 (acute, dermal, rat) [mg/kg] | effect of wettable powder formulation on dermal toxicity (in words, wettable powder formulation) | ACTIVITY LD50 [7] [p.p.m.] |
| --- | --- | --- | --- | --- | --- | --- | --- | --- | --- | --- | --- | --- | --- | --- |
| C#CCSc1nc(C(C)(C)C)nn1C(=O)N(C)C [methyl methyl t-butyl prop-2-ynyl, 1(2)-N,N-dimethylcarbamoyl-3-t-butyl-5-prop-2-ynylthio-1,2,4-triazole] | 27 | ≤ 2 | 0.8 | 33 | 1.1 |  |  |  |  |  |  |  |  |  |
| 1(2)-N,N-dimethylcarbamoyl-3-t-butyl-5-but-2-enylthio-1,2,4-triazole [methyl methyl t-butyl but-2-enyl] | 27 | ≤ 2 | 1.2 | 220 | 0.19 | 80 to 160 | low mammalian toxicity | sufficiently low | sufficiently low mammalian toxicity | high insecticidal activity | 40 to 80 | 40 | reduces the dermal toxicity | 10 |
| 1(2)-N,N-dimethylcarbamoyl-3-isopropyl-5-methylthio-1,2,4-triazole [methyl methyl isopropyl methyl] | 59 |  |  | 160 | 1.1 |  |  |  |  |  |  |  |  | 37 |
| CSc1nc(C(C)(C)C)nn1C(=O)N(C)C [methyl methyl t-butyl methyl, 1-N,N-dimethylcarbamoyl-3-t-butyl-5-methylthio-1,2,4-triazole] |  | ≤ 2 |  |  |  |  | too high to permit the more widespread use |  |  | insecticidally active |  |  |  |  |
